Test results reported in PubChem BioAssay (NCI).
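The compound was tested at five concentrations on cells cultured in 96-well plates, with a 48-hour exposure period. The concentration for 50% growth inhibition is given as GI50. At the TGI there is no net growth.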

Columns and labels:
Assay in all cases: NCI-60 cell line screen, 48 h
OVCAR-8 ovarian = system: OVCAR-8 ovarian
SK-MEL-28 melanoma = system: SK-MEL-28 melanoma
HT29 colon = system: HT29 colon
NCI-H23 lung = system: NCI-H23 lung
M14 melanoma = system: M14 melanoma
HCT-15 colon = system: HCT-15 colon
EKVX NSCLC = system: EKVX NSCLC
A549 NSCLC = system: A549 NSCLC
A498 renal = system: A498 renal
LOX IMVI melanoma = system: LOX IMVI melanoma

Compound	GI50 (OVCAR-8 ovarian) [µM]	TGI (OVCAR-8 ovarian) [µM]	GI50 (SK-MEL-28 melanoma) [µM]	TGI (SK-MEL-28 melanoma) [µM]	GI50 (HT29 colon) [µM]	TGI (HT29 colon) [µM]	GI50 (NCI-H23 lung) [µM]	TGI (NCI-H23 lung) [µM]	GI50 (M14 melanoma) [µM]	TGI (M14 melanoma) [µM]	GI50 (HCT-15 colon) [µM]	TGI (HCT-15 colon) [µM]	GI50 (EKVX NSCLC) [µM]	TGI (EKVX NSCLC) [µM]	GI50 (A549 NSCLC) [µM]	TGI (A549 NSCLC) [µM]	GI50 (A498 renal) [µM]	TGI (A498 renal) [µM]	TGI (LOX IMVI melanoma) [µM]	GI50 (LOX IMVI melanoma) [µM]
COc1ccc(F)cc1-c1ccnc2[nH]c(C3=CCN(C4CCC(CC(=O)O)CC4)CC3)cc12 (stereo not drawn)	0.288	> 100	0.152	0.989	0.234	3.93	0.185	2.53	0.275	1.93	0.249	> 100	0.289	40.9	0.424	> 100	0.21	0.543	–	–
COC1CC(n2cc(F)c(N)nc2=O)OC1CO (stereo not drawn)	–	> 100	–	> 100	–	> 100	–	> 100	–	> 100	–	> 100	–	> 100	–	> 100	–	–	> 100	–
CCCCCCCCc1cc(O)ccc1O	29.2	> 100	17.4	33.4	16.1	49.4	17.3	42	–	–	16.4	38	18.1	61.1	28.6	> 100	15.3	36	25.8	12.8
CCCCOP1(=O)CC(C)=C(Cl)C(C)(OC)C1 (stereo not drawn)	–	> 100	–	> 100	–	> 100	–	> 100	–	> 100	–	> 100	–	> 100	–	> 100	–	–	> 100	–
O/N=C1\C(=C\c2ccc3c(c2)OCCO3)CCCC1C(NO)c1ccc2c(c1)OCCO2 (stereo not drawn)	–	> 100	–	32.5	–	32.3	–	–	–	34.4	–	68.6	–	69.6	–	> 100	–	60	29.1	–
N#C/C(=C1\OC(N)=C(c2ccc(Cl)cc2)C1=O)c1ccc(Cl)cc1	–	26.3	–	67.7	–	39.5	–	27.1	–	29.8	–	–	–	32.4	–	50.9	–	31.1	31.4	–
CC1=CC(=O)N2C(OC[C@@H]2c2ccccc2)O1 (stereo partly drawn)	–	> 100	–	> 100	–	> 100	–	> 100	–	> 100	–	> 100	–	> 100	–	> 100	–	–	–	–
CC(=O)/C(=C/N1CCN(C(=O)c2ccco2)C1=S)C(=O)c1ccccc1	8.75	24.3	28	> 50	16.9	> 50	–	–	6.32	13.1	4.71	18.9	7.9	21.3	10.8	26.9	–	–	20.4	8.91
CC1/C(=N/O)CC(c2ccccc2)N(N=O)C1c1ccccc1 (stereo not drawn)	–	> 100	–	> 100	–	> 100	–	> 100	–	> 100	–	> 100	–	> 100	–	> 100	–	–	> 100	–
CCOC(=O)C(=O)Nc1nc2ccc(C)cc2s1	–	> 100	–	> 100	–	> 100	–	> 100	–	> 100	–	> 100	–	> 100	–	> 100	–	> 100	–	–
CCOc1ccccc1NC(=O)C1=C(C)NC(C)=C(C(=O)Nc2ccccc2OCC)C1c1cccc([N+](=O)[O-])c1	–	> 100	–	> 100	–	> 100	–	> 100	–	> 100	–	–	–	> 100	–	> 100	–	> 100	> 100	–
N#CNC1=NCCC(=O)N1CCc1c[nH]c2ccccc12	–	> 100	–	> 100	–	> 100	–	> 100	–	> 100	–	> 100	–	> 100	–	> 100	–	–	> 100	–
C[C@H]1CCC2C(OC(=O)[C@@H]2CN(C)C)[C@]2(C)C(=O)C=CC12O (stereo partly drawn)	–	–	–	8.35	–	16	–	13.6	–	14.8	–	–	–	–	–	72.8	–	31.2	17.8	–
C=CCCC(=O)CC(=O)OCc1ccccc1	–	> 100	–	–	–	> 100	–	> 100	–	> 100	–	> 100	–	> 100	–	> 100	–	> 100	> 100	–
CCN1CCC(O)(/C=C/c2ccccc2)C(C(=O)/C=C/c2ccccc2)C1 (stereo not drawn)	–	4.55	–	3.91	–	3.73	–	10.3	–	4.13	–	3.84	–	11.8	–	16.8	–	18.4	–	–
C1CC[N-]CC1.CC(=N\O)/C(C)=N/O.CC(=N\O)/C(C)=N/O.C[CH-]C(C)O.[Co+2]	21.2	59.6	29.2	61.2	34.3	> 100	–	–	20.8	45.1	30	> 100	35.7	> 100	47.3	> 100	23.9	73.9	33.7	17.8
COc1ccc2c(c1)C=CC1C2CC[C@]2(C)C(NC(=O)/C=C/c3ccc(O)c(O)c3)CCC12 (stereo partly drawn)	14.2	> 100	16.2	32	–	–	16.3	38.3	13.7	30.8	3.05	13.3	18.8	56.5	11.4	29.5	19.9	53.6	20.2	6.45
C=CCO[C@H]1CC[C@@]2(C)C(CC[C@]3(C)C2CC=C2[C@@H]4[C@@H](C)C(C)CC[C@]4(C(=O)O)CCC23C)C1(C)C (stereo partly drawn)	–	36.6	–	29.5	–	31.6	–	28.9	–	34.6	–	–	–	38.1	–	32.7	–	32.4	27.2	–
CSc1nc2ccc(C)cc2cc1/C=C1/C=C(c2ccccc2)NC1=O	3.6	23.2	23.1	> 100	3.44	> 100	10	> 100	5.42	78	14	> 100	13.1	> 100	3.54	30.7	–	–	33.2	6.33
CN1CCN(c2nc3cc(F)ccc3n3cccc23)CC1	–	> 100	–	51.8	–	87.6	–	> 100	–	34.5	–	> 100	–	> 100	–	> 100	–	–	31.4	–
CC1=C2C3OC(=O)C(C)C3C(O)C[C@@]2(C)C(=O)CC1 (stereo partly drawn)	–	> 100	–	> 100	–	> 100	–	–	–	> 100	–	> 100	–	> 100	–	> 100	–	> 100	> 100	–
Cn1cc(-c2csc(-c3cn(C(=O)OC(C)(C)C)c4ccccc34)n2)c2cccnc21	6.03	33.9	10.2	33.3	–	–	11.2	30.9	7.36	22.7	6.35	37.7	7.12	33.7	6.04	31.2	3.86	14.4	18.6	3.53
CCOC(=O)CC(C)C1(C=O)CCCCC1=O (stereo not drawn)	–	> 100	–	> 100	–	–	–	–	–	> 100	–	> 100	–	> 100	–	> 100	–	> 100	34	–
CC(=O)[O][Hg][c]1s[c]([Hg][O]C(C)=O)[c]([Hg][O]C(C)=O)[c]1[Hg][O]C(C)=O	2.93	> 100	1.18	5.52	19.5	> 100	19.7	> 100	1.98	14	4.51	30.4	–	–	55.8	> 100	20.1	35.1	–	–
O=C1C(=Cc2ccc(F)cc2)C(=O)c2ccccc21	–	> 100	–	> 100	–	> 100	–	> 100	–	> 100	–	> 100	–	> 100	–	> 100	–	> 100	–	–
CCSc1nc(N)c2cnn(CC)c2n1	3.21	19.4	20.4	> 100	–	–	10.3	22	15.1	30.5	6.21	25.3	7.79	34.1	3.83	20.9	3.7	22.8	8	2.23
N#CC(C#N)C(c1ccccc1)c1ccccc1	–	> 100	–	> 100	–	–	–	–	–	> 100	–	> 100	–	–	–	> 100	–	> 100	> 100	–
O=C(N/N=C/c1ccc(N(CCCl)CCCl)cc1)c1ccc(C(=O)N/N=C/c2ccc(N(CCCl)CCCl)cc2)cc1	12.9	> 100	> 100	> 100	0.801	> 100	–	–	3.79	> 100	> 100	> 100	–	–	3.08	> 100	15.1	> 100	> 100	1.4
COC(=N)CCCl	–	> 100	–	> 100	–	> 100	–	> 100	–	> 100	–	> 100	–	> 100	–	> 100	–	–	–	–
